From patent US20110306580A1 (DONG WHA PHARMACEUTICAL CO ., LTD., priority 2009, published 2011)

Tests used:
ROS17/2.8 cells [1] = test: Cell growth of ROS17/2.8 cells by BrdU uptake (Cell Proliferation Biotrak ELISA); assay type: cell-based, rat; details: for Cell growth of ROS17/2.8 cells compared with Solution 1 (FIG. 1) / Cell growth of ROS17/2.8 cells compared with Solution 1 (FIG. 2): BrdU uptake, Dunnett multiple comparison test; for Product of relative indices of single agent addition group: Bürgi's method; for Relative index of BrdU uptake amount, Solution 3 (1α,25-dihydroxyvitamin D3 alone): 10^−4M 1α,25-dihydroxyvitamin D3 solution diluted 1000 fold
Protocol: ROS17/2.8 cells were inoculated to a 96-well plate at a density of 2×10^4 cells/well. An αMEM medium to which 10% fetal calf serum had been added (referred to as the 10% FCS-αMEM, hereinafter) was used as a medium. After culture of the cells overnight, the medium was removed from each well, and an αMEM medium to which 0.5% fetal calf serum had been added (referred to as the 0.5% FCS-αMEM, hereinafter) was added. After culture of the cells for about six hours, the medium was removed from each well, and a 10% FCS-αMEM comprising DMSO and ethanol (referred to as Solution 1, hereinafter), a Compound 1 solution and ethanol (referred to as Solution 2, hereinafter), a 1α,25-dihydroxyvitamin D3 solution and DMSO (referred to as Solution 3, hereinafter) or the Compound 1 solution and the 1α,25-dihydroxyvitamin D3 solution (referred to as Solution 4, hereinafter) was added. The 10% FCS-αMEM comprising Solution 1 was prepared by diluting DMSO and ethanol by 1000 fold with the 10% FCS-αMEM. The 10% FCS-αMEM comprising Solution 2 was prepared by diluting a 10^−5M Compound 1 solution and ethanol by 1000 fold with the 10% FCS-αMEM. The 10% FCS-αMEM comprising Solution 3 was prepared by diluting a 10^−4M 1α,25-dihydroxyvitamin D3 solution and DMSO by 1000 fold with the 10% FCS-αMEM. The 10% FCS-αMEM comprising Solution 4 was prepared by diluting the 10^−5M Compound 1 solution and the 10^−4M 1α,25-dihydroxyvitamin D3 solution by 1000 fold with the 10% FCS-αMEM. After culture of the cells for about 24 hours, the effect of Compound 1 and 1α,25-dihydroxyvitamin D3 on the cell growth of the ROS17/2.8 cells was evaluated using Amersham Cell Proliferation Biotrak ELISA system, version 2 (manufactured by GE healthcare bioscience K.K., Code No. RPN250). Namely, growing cells were made take 5-bromo-2′-deoxyuridine (BrdU) into the cells, and the cells were detected by ELISA using peroxidase-labeled anti-BrdU antibodies. The amount of BrdU taken into the cells was determined by measuring absorbance (450 nm) of the solution by a microplate reader.
The BrdU uptake amount in each solution addition group was obtained in terms of a percentage to the average value of the BrdU uptake amount in four wells in a Solution 1 addition group. The graph was made using the average value±standard error of the four wells of each solution addition group.
In the Bürgi's method, the value of a standard group is […] the values of each treated group to obtain a relative index. […] If they are the same, it is determined that there is an added action. In contrast, if the value of the combination treatment group is poor, it is determined that there is an antagonistic action.
ROS17/2.8 cells were inoculated to a 96-well plate at a density of 5×10^3 cells/well. The 10% FCS-αMEM was used as a medium. After culture of the cells overnight, the medium was removed from each well, and the 0.5% FCS-αMEM was added. After culture of the cells for about six hours, the medium was removed from each well, and the 10% FCS-αMEM comprising DMSO and ethanol (referred to as Solution 1, hereinafter), a Compound 11 solution and ethanol (referred to as Solution 5, hereinafter), the 1α,25-dihydroxyvitamin D3 solution and DMSO (referred to as Solution 3, hereinafter) or the Compound 11 solution and the 1α,25-dihydroxyvitamin D3 solution (referred to as Solution 6, hereinafter) was added. The 10% FCS-αMEM comprising Solution 1 was prepared by diluting DMSO and ethanol by 1000 fold with the 10% FCS-αMEM. The 10% FCS-αMEM comprising Solution 5 was prepared by diluting a 10^−5M Compound 11 solution and ethanol by 1000 fold with the 10% FCS-αMEM. The 10% FCS-αMEM comprising Solution 3 was prepared by diluting a 10^−4M 1α,25-dihydroxyvitamin D3 solution and DMSO by 1000 fold with the 10% FCS-αMEM.

ROS17/2.8 cells [2] = test: Cell growth of ROS17/2.8 cells by the MTT method (formed formazan); assay type: cell-based, rat
Protocol: 100 μL of a 10% FCS-αMEM comprising either DMSO and ethanol (referred to as Solution 7, hereinafter), a Test Compound solution and ethanol (referred to as Solution 8, hereinafter), a 1α,25-dihydroxyvitamin D3 solution and DMSO (referred to as Solution 9, hereinafter) or a Test Compound solution and the 1α,25-dihydroxyvitamin D3 solution (referred to as Solution 10, hereinafter) was dispensed. The ROS17/2.8 cells were inoculated to a medium at a density of 5×10^3 cells/100 μL/well. After culture of the cells for about 48 hours, the effect of Test Compound and 1α,25-dihydroxyvitamin D3 on the cell growth of the ROS17/2.8 cells was evaluated using the MTT method. Namely, after culture of the cells for about 44 hours, an MTT solution (3-[4,5-dimethylthiazol-2-yl]-2,5-diphenyltetrazolium bromide 2 mg/mL) was added in an amount of 25 μL/well, and the cells were further cultured for four hours. After the medium was removed, DMSO was added in an amount of 100 μL/well so as to dissolve the formed formazan. The amount of the formed formazan was determined by measuring the absorbance (at 560 nm) of the solution by a microplate reader.
The 10% FCS-αMEM comprising Solution 7 was prepared by diluting DMSO by 1000 fold with the 10% FCS-αMEM, and diluting ethanol by 10000 fold with the 10% FCS-αMEM. The 10% FCS-αMEM comprising Solution 8 was prepared by diluting a 2×10^−5M Test Compound solution by 1000 fold with the 10% FCS-αMEM, and diluting ethanol by 10000 fold with the 10% FCS-αMEM. The 10% FCS-αMEM comprising Solution 9 was prepared by diluting 2×10^−3M 1α,25-dihydroxyvitamin D3 solution by 10000 fold with the 10% FCS-αMEM, and diluting DMSO by 1000 fold with the 10% FCS-αMEM. The 10% FCS-αMEM comprising Solution 10 was prepared by diluting a 2×10^−5M Test Compound solution by 1000 fold with the 10% FCS-αMEM, and diluting 2×10^−3M 1α,25-dihydroxyvitamin D3 solution by 10000 fold with the 10% FCS-αMEM.
The amount of the formed formazan in each solution addition group was obtained in terms of a percentage to the average value of the amounts of formed formazan in four wells in a Solution 7 addition group. All the determined values were shown in terms of the average value±standard deviation of the four wells of each solution addition group.

[3] = amount of formed formazan, Solution 7 = 1.00

Structure (SMILES) | Relative index of BrdU uptake amount, Solution 2 (Compound 1 alone) (ROS17/2.8 cells [1]; Example 1, 2×10^4 cells/well, 10^−5M Compound 1 solution diluted 1000 fold, about 24 hours, Solution 1 = 1.000) | Cell growth of ROS17/2.8 cells compared with Solution 1 (FIG. 1) (ROS17/2.8 cells [1]; Example 1) | Product of relative indices of single agent addition group (ROS17/2.8 cells [1]; Example 1, Compound 1 alone × 1α,25-dihydroxyvitamin D3 alone) | Relative index of Solution 9 (1α,25-dihydroxyvitamin D3 alone) (ROS17/2.8 cells [2]; [3]) | Amount of formed formazan, Solution 9 (1α,25-dihydroxyvitamin D3 alone) (ROS17/2.8 cells [2]; percentage to Solution 7 addition group, 2×10^−3M 1α,25-dihydroxyvitamin D3 solution diluted 10000 fold, about 48 hours, average ± standard deviation of four wells) [%] | Relative index of BrdU uptake amount, Solution 3 (1α,25-dihydroxyvitamin D3 alone) (ROS17/2.8 cells [1]; Example 1, 2×10^4 cells/well, about 24 hours, Solution 1 = 1.000) | Relative index of BrdU uptake amount, Solution 3 (1α,25-dihydroxyvitamin D3 alone) (ROS17/2.8 cells [1]; Example 2, 5×10^3 cells/well, about 24 hours, Solution 1 = 1.000) | Cell growth of ROS17/2.8 cells compared with Solution 1 (FIG. 2) (ROS17/2.8 cells [1]; Example 2) | activity at 0.02 µM (ROS17/2.8 cells [2]; Rattus norvegicus, percentage to Solution 7 addition group, 2×10^−5M Test Compound solution diluted 1000 fold, about 48 hours, average ± standard deviation of four wells, read-out: Amount of formed formazan, Solution 8 (Test Compound alone)) [%] | Relative index of Solution 10 (a group of a drug combination) (ROS17/2.8 cells [2]; Test Compound in combination with 1α,25-dihydroxyvitamin D3, amount of formed formazan, Solution 7 = 1.00) | Amount of formed formazan, Solution 10 (a group of a drug combination) (ROS17/2.8 cells [2]; Test Compound in combination with 1α,25-dihydroxyvitamin D3, percentage to Solution 7 addition group, about 48 hours, average ± standard deviation of four wells) | Relative index of Solution 8 (Test Compound alone) (ROS17/2.8 cells [2]; [3]) | Relative index of BrdU uptake amount, Solution 5 (Compound 11 alone) (ROS17/2.8 cells [1]; Example 2, 5×10^3 cells/well, 10^−5M Compound 11 solution diluted 1000 fold, about 24 hours, Solution 1 = 1.000) | Product of relative indices of single agent addition group (ROS17/2.8 cells [1]; Example 2, Compound 11 alone × 1α,25-dihydroxyvitamin D3 alone)
Cc1nc(-c2ccc(OCCCCCOc3ccc(/C(N)=N/O)cc3)cc2)c(C(C)C)s1 [Compound 1, N-hydroxy-4-{5-[4-(5-isopropyl-2-methyl-1,3-thiazol-4-yl)phenoxy]pentoxy}benzamidine] | 1.011 | not significantly different | 1.233 |  |  |  |  |  |  |  |  |  |  | 
C=C1/C(=C\C=C2/CCC[C@]3(C)[C@@H]([C@H](C)CCCC(C)(C)O)CC[C@@H]23)C[C@@H](O)C[C@@H]1O [1α,25-dihydroxyvitamin D3, reference compound] |  | not significantly different |  | 1.05 | 105 ± 3.1 | 1.220 | 1.195 | not significantly different |  |  |  |  |  | 
CCCN(CCC)c1nc(-c2ccc(OCCCCCOc3ccc(/C(N)=N/O)cc3)cc2)c(CC)s1 [Compound 11, N-hydroxy-4-{5-[4-(2-dipropylamino-5-ethyl-1,3-thiazol-4-yl)phenoxy]pentoxy}benzamidine] |  |  |  |  |  |  |  | not significantly different | 103 ± 2.4 | 1.15 | 115 ± 4.4 # % | 1.03 | 1.023 | 1.223
